This is an account of results in patent US8518635B2, “Regulation of protein activity by reversible acetylation” (The J. David Gladstone Institutes, priority 2006, dated 2013).

Entries after “also recorded” stand apart in the source; their conditions may differ.

The target in one experiment is T1, bacterial sirtuins (Escherichia coli, UniProt P75960).
T1 construct: endogenous in cells; host or cells: E. coli DH5alpha (Invitrogen)
Put plainly: Expression of recombinant human AceCS2 in nicotinamide-treated E. coli, acetyl-lysine immunoblot. Format: cell-based. The procedure: E. coli DH5α bacteria (Invitrogen) transformed, e.g., with either pTrcHis2C-SIRT3(102-399), pTrcHis2C-SIRT3-H248Y(102-399), pTrcHis2C-SIRT5(12-310), pTrcHis2C-SIRT5(39-310) or pTrcHis2C-AceCS2(38-689) were grown to an A600 nm=0.4, and induced with 0.5 mM isopropyl-β-D-thiogalactopyranoside (IPTG) at 25° C. for 16 h. 6×His-tagged proteins were purified under native conditions at 4° C. using Ni-NTA agarose (Qiagen, Valencia, Calif.). Purified proteins were dialyzed (e.g., against sirtuin storage buffer […], 4 mM MgCl2, 50 mM NaCl, 0.5 mM DTT, 5% glycerol (v/v) or AceCS2 storage buffer [50 mM Tris-HCl (pH 8.0), 4 mM MgCl2, 10% glycerol (v/v)], adjusted to 0.5 g/L and stored frozen at −80° C. To induce acetylation of recombinant AceCS2, nicotinamide (50 mM) was added during protein expression (16 h, 25° C.).
Immunoblots were developed with enhanced chemiluminescence (Amersham Pharmacia Biosciences) or West SuperSignal reagent (Pierce). Membranes were either nitrocellulose or polyvinylidene fluoride (PVDF) (Immun-Blot; Bio-Rad Laboratories).

In the next experiment the test system is AceCS2. The experiment is described as follows: Acetyl-CoA synthetase activity of purified AceCS2. Format: biochemical, human. As to conditions: hyperacetylated AceCS2 from nicotinamide-treated E. coli vs untreated. The protocol: E. coli DH5α bacteria (Invitrogen) transformed, e.g., with either pTrcHis2C-SIRT3(102-399), pTrcHis2C-SIRT3-H248Y(102-399), pTrcHis2C-SIRT5(12-310), pTrcHis2C-SIRT5(39-310) or pTrcHis2C-AceCS2(38-689) were grown to an A600 nm=0.4, and induced with 0.5 mM isopropyl-β-D-thiogalactopyranoside (IPTG) at 25° C. for 16 h. 6×His-tagged proteins were purified under native conditions at 4° C. using Ni-NTA agarose (Qiagen, Valencia, Calif.). […]
The activity of purified AceCS2 was measured as described (Jones & Lipmann, 1955, in Methods in Enzymology (Academic Press, Vol. 1, pp. 585-591; Barak et al., 2004, J Mol Biol 342:383-401). Each reaction (0.5 mL) contained 100 mM hydroxylamine (pre-neutralized with KOH), 50 mM Tris-HCl (pH 8.0), 20 mM potassium acetate, 10 mM MgCl2, 10 mM ATP, 2 mM DTT and 1 mM CoA. All chemicals (Sigma) were of the highest purity available. Reactions were pre-incubated at 35° C. for 5 min before the addition of purified AceCS2 (6 μg). After 30 min of incubation, 0.5 mL stop solution (10% (w/v) FeCl3, 3.3% (w/v) trichloroacetic acid in 2 N HCl) were added and reactions were incubated on ice for 2 min. The samples were centrifuged for 2 min at 16,200×g to remove turbidity and the generated color was measured at 540 nm. […]

T1 sequence (P75960 whole entry): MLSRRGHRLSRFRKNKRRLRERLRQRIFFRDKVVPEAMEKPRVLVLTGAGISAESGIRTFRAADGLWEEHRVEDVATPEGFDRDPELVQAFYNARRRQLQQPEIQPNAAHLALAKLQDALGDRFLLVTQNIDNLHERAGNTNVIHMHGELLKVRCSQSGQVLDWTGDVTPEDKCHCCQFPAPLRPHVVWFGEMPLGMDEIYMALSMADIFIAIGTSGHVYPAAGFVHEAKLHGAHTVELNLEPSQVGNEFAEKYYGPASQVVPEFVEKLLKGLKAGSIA

Consider `NC(=O)c1cccnc1` [nicotinamide], for which, on bacterial sirtuins (E. coli treated with nicotinamide during expression, AceCS2-K642R), the “acetylation of mutant AceCS2 protein carrying an arginine residue in position 642” value is listed as “did not induce acetylation”. Also, the “acetylation of recombinant human AceCS2 (Lys642)” value at bacterial sirtuins (wild-type E. coli treated with nicotinamide (50 mM) during protein expression, 16 h, 25° C., AceCS2 wild type) is reported as “hyperacetylation of recombinant human AceCS2; also recorded: significantly increased its levels of acetylation”. Besides, the “specific activity of AceCS2 purified from bacteria treated or not with nicotinamide” value in the experiment with AceCS2 is reported as “significantly lower specific activity”.
